According to PubChem BioAssay AID248 (DTP/NCI, 2004):
Inconclusive results and toxic doses are left out. Cut-off read from the data, not from the text of the source: active = T/C of 150% or more; inactive = T/C below 125%.

Test system: L1210 leukemia ip in BDF1 mice, survival T/C
Test: NCI In Vivo Anticancer Drug Screen. Data for tumor model L1210 Leukemia (intraperitoneal) in B6D2F1 (BDF1) mice
Details: endpoint: mean survival time, higher = longer survival
Outline: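 Antitumor effect is assessed in tumor-bearing animals. Survival in the compound arm is compared with a vehicle-dosed control arm and expressed as their quotient.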

[1] = dose: 100.0 mg/kg/injection, schedule: Q01DX009 (ip), vehicle: saline with Tween-80
[2] = dose: 200.0 mg/kg/injection, schedule: Q01DX009 (ip), vehicle: saline with Tween-80
[3] = dose: 100.0 mg/kg/injection, schedule: Q01DX009 (ip), vehicle: Klucel (hydroxypropylcellulose) (HPC)
[4] = dose: 200.0 mg/kg/injection, schedule: Q01DX009 (ip), vehicle: Klucel (hydroxypropylcellulose) (HPC)
[5] = dose: 400.0 mg/kg/injection, schedule: Q01DX009 (ip), vehicle: Klucel (hydroxypropylcellulose) (HPC)
[6] = dose: 100.0 mg/kg/injection, schedule: Q04DX002 (ip), vehicle: saline with Tween-80
[7] = dose: 200.0 mg/kg/injection, schedule: Q04DX002 (ip), vehicle: saline with Tween-80
[8] = dose: 400.0 mg/kg/injection, schedule: Q04DX002 (ip), vehicle: saline with Tween-80
[9] = dose: 50.0 mg/kg/injection, schedule: Q01DX009 (ip), vehicle: saline with Tween-80
[10] = dose: 100.0 mg/kg/injection, schedule: Q01DX001 (ip), vehicle: saline with Tween-80
[11] = dose: 200.0 mg/kg/injection, schedule: Q01DX001 (ip), vehicle: saline with Tween-80
[12] = dose: 100.0 mg/kg/injection, schedule: Q04DX003 (ip), vehicle: saline with Tween-80
[13] = dose: 400.0 mg/kg/injection, schedule: Q04DX003 (ip), vehicle: saline with Tween-80
[14] = dose: 100.0 mg/kg/injection, schedule: Q01DX001 (ip), vehicle: saline
[15] = dose: 100.0 mg/kg/injection, schedule: Q04DX003 (ip), vehicle: saline
[16] = dose: 200.0 mg/kg/injection, schedule: Q04DX003 (ip), vehicle: saline
[17] = dose: 400.0 mg/kg/injection, schedule: Q04DX003 (ip), vehicle: saline
[18] = dose: 400.0 mg/kg/injection, schedule: Q01DX001 (ip), vehicle: saline with Tween-80

Measured: T/C

CC(=O)[O][Pb]([CH2]CC(C)C)([CH2]CC(C)C)[CH2]CC(C)C
inactive: dose: 0.78 mg/kg/injection, schedule: Q01DX009 (ip), vehicle: saline with Tween-80 98 % of control | dose: 0.78 mg/kg/injection, schedule: Q04DX002 (ip), vehicle: saline with Tween-80 95 % of control | dose: 1.56 mg/kg/injection, schedule: Q01DX009 (ip), vehicle: saline with Tween-80 97 % of control | dose: 1.56 mg/kg/injection, schedule: Q04DX002 (ip), vehicle: saline with Tween-80 92 % of control | dose: 3.12 mg/kg/injection, schedule: Q01DX009 (ip), vehicle: saline with Tween-80 95 % of control | dose: 3.12 mg/kg/injection, schedule: Q04DX002 (ip), vehicle: saline with Tween-80 92 % of control

Clc1cccc(-c2nc3ccccc3c3ccccc23)c1
inactive: [1] 90 % of control | [2] 100 % of control | dose: 400.0 mg/kg/injection, schedule: Q01DX009 (ip), vehicle: saline with Tween-80 103 % of control

CCOC(=O)C(C)Oc1ccccc1[N+](=O)[O-] (centres undefined)
inactive: [3] 93 % of control | [4] 102 % of control | [5] 102 % of control

CCN(C(=O)c1ccccc1Cl)C(c1ccco1)P(=O)(c1ccccc1)c1ccccc1 (centres undefined)
inactive: [6] 93 % of control | [7] 86 % of control | [8] 117 % of control

CCC(CO)C(C)C (centres undefined)
inactive: [9] 107 % of control | [1] 102 % of control | [2] 93 % of control

CCCN(CCC)C(=O)C(=O)OCC
inactive: dose: 6.25 mg/kg/injection, schedule: Q04DX003 (ip), vehicle: saline with Tween-80 102 % of control | dose: 12.5 mg/kg/injection, schedule: Q04DX003 (ip), vehicle: saline with Tween-80 94 % of control | dose: 25.0 mg/kg/injection, schedule: Q04DX003 (ip), vehicle: saline with Tween-80 98 % of control

NC(=S)N/N=C/c1c[nH]c2ccccc12
inactive: [3] 95 % of control | dose: 100.0 mg/kg/injection, schedule: Q04DX003 (ip), vehicle: Klucel (hydroxypropylcellulose) (HPC) 87 % of control | [4] 97 % of control | dose: 200.0 mg/kg/injection, schedule: Q04DX003 (ip), vehicle: Klucel (hydroxypropylcellulose) (HPC) 96 % of control | dose: 400.0 mg/kg/injection, schedule: Q04DX003 (ip), vehicle: Klucel (hydroxypropylcellulose) (HPC) 94 % of control

N=C(N)c1ccc(OCCCCOc2ccc(NC(=O)c3cccc(S(=O)(=O)F)c3)cc2)cc1
inactive: dose: 50.0 mg/kg/injection, schedule: Q01DX001 (ip), vehicle: saline with Tween-80 98 % of control | [10] 95 % of control | [11] 97 % of control

Cc1ccc(C(=O)N(N)C2CCCCC2)cc1
inactive: [12] 95 % of control | dose: 200.0 mg/kg/injection, schedule: Q04DX003 (ip), vehicle: saline with Tween-80 93 % of control | [13] 96 % of control

Clc1ccc(C#[C][Hg][C]#Cc2ccc(Cl)cc2)cc1
inactive: [9] 109 % of control | [1] 95 % of control | [2] 92 % of control

O=C(O)c1ccc2c3c(ccc(C(=O)O)c13)CC2
inactive: [14] 104 % of control

COc1ccc(CN2CCCN(Cc3ccc(OC)cc3OC)C2c2ccccc2F)c(OC)c1
inactive: dose: 50.0 mg/kg/injection, schedule: Q01DX001 (ip), vehicle: saline 96 % of control | [14] 96 % of control | dose: 200.0 mg/kg/injection, schedule: Q01DX001 (ip), vehicle: saline 89 % of control | dose: 400.0 mg/kg/injection, schedule: Q01DX001 (ip), vehicle: saline 94 % of control

Cc1c[nH]c(=O)c[n+]1[O-]
inactive: [15] 97 % of control | [16] 100 % of control | [17] 100 % of control

Cc1ccc(C)c(NC(=O)N(Cc2ccccc2)Cc2ccccc2)c1
inactive: [3] 94 % of control | [4] 91 % of control | [5] 96 % of control

N#CC(Oc1ccccc1)c1ccccc1 (centres undefined)
inactive: [12] 98 % of control | [13] 104 % of control

N#Cc1c(/N=C/c2cc(Cl)cc(Cl)c2O)sc2c1CCC2
inactive: [6] 95 % of control | [7] 113 % of control | [8] 91 % of control

CCOC(=O)Nc1cc(NC(c2ccc(Cl)cc2)c2ccc(Cl)cc2)c2[nH]cnc2n1
inactive: dose: 25.0 mg/kg/injection, schedule: Q01DX009 (ip), vehicle: other 96 % of control | dose: 50.0 mg/kg/injection, schedule: Q01DX009 (ip), vehicle: other 111 % of control

O=S(=O)(O)C(I)(I)S(=O)(=O)O
inactive: [15] 99 % of control | [16] 100 % of control | [17] 95 % of control

CC[Si](CC)(c1ccccc1)N1CC1
inactive: dose: 25.0 mg/kg/injection, schedule: Q01DX001 (ip), vehicle: carboxymethylcellulose (CMC) 97 % of control | dose: 50.0 mg/kg/injection, schedule: Q01DX001 (ip), vehicle: carboxymethylcellulose (CMC) 101 % of control

CC(=O)Oc1c2ccsc2cc2ccsc12
inactive: [10] 100 % of control | [11] 96 % of control | [18] 96 % of control

O=C(NSN1CCOCC1)c1ccccc1
inactive: dose: 100.0 mg/kg/injection, schedule: Q04DX002 (ip), vehicle: Klucel (hydroxypropylcellulose) (HPC) 102 % of control | dose: 200.0 mg/kg/injection, schedule: Q04DX002 (ip), vehicle: Klucel (hydroxypropylcellulose) (HPC) 98 % of control

C[n+]1ccnc2ccccc21
inactive: dose: 10.0 mg/kg/injection, schedule: Q01DX009 (ip), vehicle: saline with Tween-80 105 % of control | dose: 20.0 mg/kg/injection, schedule: Q01DX009 (ip), vehicle: saline with Tween-80 105 % of control | dose: 40.0 mg/kg/injection, schedule: Q01DX009 (ip), vehicle: saline with Tween-80 104 % of control

COc1cc2c(cc1OC)CN1CCC(=O)CC1C2 (centres undefined)
inactive: [10] 107 % of control | [11] 102 % of control | [18] 106 % of control

C[N+]1(C)C2CC(=O)CC1C1CC12 (centres undefined) (tested in a mixture with another compound)
inactive: dose: 50.0 mg/kg/injection, schedule: Q01DX009 (ip), vehicle: saline 106 % of control | dose: 100.0 mg/kg/injection, schedule: Q01DX009 (ip), vehicle: saline 108 % of control | [15] 94 % of control | dose: 200.0 mg/kg/injection, schedule: Q01DX009 (ip), vehicle: saline 90 % of control | [16] 100 % of control
